Values joined by “and” are separate entries in the source; they are usually repeats but may differ in a detail not shown here. Equal entries are not always repeated.
molecular target: T1, recombinant MPO (Homo sapiens, UniProt P05164); assay: Myeloperoxidase inhibition assay (taurine chloramine); assay type: biochemical; conditions: pure compounds, read-out: IC50 (μM) ± SD for MPO
T1 construct: made in house
T1 sequence (P05164 49-745): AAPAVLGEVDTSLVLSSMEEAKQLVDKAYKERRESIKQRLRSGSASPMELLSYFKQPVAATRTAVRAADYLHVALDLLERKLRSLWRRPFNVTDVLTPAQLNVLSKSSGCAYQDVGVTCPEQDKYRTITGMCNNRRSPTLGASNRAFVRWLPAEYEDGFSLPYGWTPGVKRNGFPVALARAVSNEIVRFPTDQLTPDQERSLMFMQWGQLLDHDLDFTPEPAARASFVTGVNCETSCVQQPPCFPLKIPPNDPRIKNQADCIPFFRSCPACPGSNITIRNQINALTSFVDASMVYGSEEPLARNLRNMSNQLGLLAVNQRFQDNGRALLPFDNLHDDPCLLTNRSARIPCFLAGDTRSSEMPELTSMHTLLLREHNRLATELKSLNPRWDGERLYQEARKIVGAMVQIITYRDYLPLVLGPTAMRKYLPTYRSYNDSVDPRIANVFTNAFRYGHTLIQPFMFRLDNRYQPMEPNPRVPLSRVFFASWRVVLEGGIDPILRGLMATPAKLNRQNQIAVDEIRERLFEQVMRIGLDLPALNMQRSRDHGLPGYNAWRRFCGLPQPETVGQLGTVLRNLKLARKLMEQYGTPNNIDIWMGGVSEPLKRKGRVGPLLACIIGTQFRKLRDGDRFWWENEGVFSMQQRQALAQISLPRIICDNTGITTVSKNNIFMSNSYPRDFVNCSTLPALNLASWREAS
Experimental: The recombinant MPO was produced as previously described Moguilevsky et al. and each batch solution was characterized by its protein concentration (mg/mL), its activity (U/mL), and its specific activity (U/mg). The chlorination activity was determined according to Hewson and Hager, (1979). Human plasma served for the isolation of LDL by ultracentrifugation according to Havel et al. (1955). Before oxidation, the LDL fraction (1.019 < d < 1.067 g/mL) was desalted by two consecutive passages through PD10 gel-filtration columns (Amersham Biosciences, Hoevelaken, The Netherlands) using PBS buffer. The different steps were carried out in the dark, and the protein concentration was measured by the Lowry assay for both MPO and LDL [57].
The assay was based on the production of taurine chloramine by the MPO/H2O2/Cl^− system which can be determined by means of 5-thio-2-nitrobenzoic acid (TNB) in the presence of a selected inhibitor at defined concentration. The reaction mixture contained the following reagents in a final volume of 200 μL:pH 7.4 phosphate buffer (10 mM PO4^3−/300 mM NaCl), taurine (15 mM), extraction solutions of propolis, and the fixed amount of the recombinant MPO (6 μL of MPO batch solution diluted 2.5 times, 40 nM). When necessary, the volume was adjusted with water. This mixture was incubated at 37 °C and the reaction initiated with 10.0 μL of H2O2 (100 μM). After 5 min, the reaction was stopped by the addition of 10 μL of catalase (8 U/μL). To determine the amount of taurine chloramines produced, 50 μL of 1.35 mM solution of TNB were added and the volume adjusted to 300 μL with water. Then, the absorbance of the solutions was measured at 412 nm with a microplate reader and the curve of the absorbance as a function of the inhibitor concentration was plotted. To remove the influence of HOCl scavenging carried out by the extracts, the same procedure of MPO inhibition assay was done but with addition of 6 μL of HOCl (60 μM) instead of the solution of MPO and H2O2.

Structure (SMILES) | IC50
COc1ccc(-c2cc(=O)c3c(O)cc(O)cc3o2)cc1 [Acacetin] | 9 ± 2 µM
O=C(O)/C=C/c1ccc(O)c(O)c1 [Caffeic acid] | > 10 µM
O=c1cc(-c2ccccc2)oc2cc(O)cc(O)c12 [Chrysin] | 8 ± 2 µM
O=C(O)/C=C/c1ccccc1 [Cinnamic acid] | 9 ± 4 µM
COc1cc(/C=C/C(=O)O)ccc1O [Ferulic acid] | 6 ± 3 µM
O=c1c(O)c(-c2ccccc2)oc2cc(O)cc(O)c12 [Galangin] | > 10 µM
O=c1c(-c2ccc(O)cc2)coc2cc(O)cc(O)c12 [Genistein] | > 10 µM
O=c1c(O)c(-c2ccc(O)cc2)oc2cc(O)cc(O)c12 [Kaempferol] | 4.1 µM and 4 µM
CC(C)c1c(O)ccc2c1CC[C@H]1C(C)(C)CCC[C@]21C [Totarol] | > 10 µM

molecular target: T1, recombinant MPO; assay: not given; conditions: stated among literature reports, no reference given; cited from earlier work

Structure (SMILES) | IC50 [µM]
O=c1c(O)c(-c2ccc(O)c(O)c2)oc2cc(O)cc(O)c12 [Quercetin] | ~5

Reference: PMC3958853, “Characterization and Antioxidant Properties of Six Algerian Propolis Extracts: Ethyl Acetate Extracts Inhibit Myeloperoxidase Activity” (International Journal of Molecular Sciences, 2014)
